Patent publication US10376520B2, “Methods for the treatment of cardiovascular disorders” (Galapagos NV, priority 2015, dated 2019)

Test system: Subjects With Active Crohn's Disease
Assay: Total cholesterol determination, Study 5 (Crohn's disease, monotherapy of Compound 1)
Type: in vivo, human
Conditions: for [Total cholesterol] Mean CFB - 10 weeks results / [Total cholesterol] Median CFB - 10 weeks results / [Total cholesterol] Median CFB / [total cholesterol] Mean CFB: 200 mg q.d.; for [Total cholesterol] Median CFB / [total cholesterol] Mean CFB: Study 5 10 weeks results
Description: Double-Blind, Randomized, Placebo-Controlled, Multi-Centre Study to Investigate the Efficacy and Safety of Compound 1 in Subjects With Active Crohn's Disease With Evidence of Mucosal Ulceration.
This is a double-blind, randomized, placebo-controlled, multi-centre Phase 2 study to investigate the efficacy and safety of Compound 1 administered once daily for the treatment of active CD with evidence of mucosal ulceration. The pharmacokinetics (including a PK substudy) and pharmacodynamics of Compound 1 and metabolite in CD will also be characterised.
A total of 180 eligible subjects will be randomized to receive Compound 1 or placebo in addition to their stable background treatment (eg, corticosteroids, aminosalicylates, or CD-related antibiotics). The study will consist of 2 parts, with total treatment duration of 20 weeks. Randomization in Part 1 will be stratified according the subject's previous anti-TNF exposure/response, CRP level at Screening, and oral corticosteroid use at visit Day −1.
After the first 10 weeks of treatment in Part 1, patients will be re-randomized for Part 2 as shown in the diagram below and will be stratified according to the subject's clinical response, previous anti-TNF exposure/response, and oral corticosteroid use at visit Day −1.
The following assays were conducted at Eurofins Global Central Laboratory, Bergschot 71, 4817 PA Breda, The Netherlands, and at Quest Diagnostics, Clinical Trials, Quest House, 125-135 Staines Road, Hounslow, Middlesex, TW3 3JB, United Kingdom. The assays for Study 5 were performed at BARC Europe, 3B, Industrie Park, Zwijnaarde, B-9052 Ghent, Belgium.
This method is based on the determination of Δ^4 cholestenone after enzymatic cleavage of the cholesterol ester by cholesterol esterase, conversion of cholesterol by cholesterol oxidase, and subsequent measurement by the Trinder reaction of the hydrogen peroxide formed (Allain et al., 1974).
Cholesterol esters are cleaved by the action of cholesterol esterase to yield free cholesterol and fatty acids. Cholesterol oxidase then catalyzes the oxidation of cholesterol to cholest-4-en-3-one and hydrogen peroxide. In the presence of peroxidase, the hydrogen peroxide formed effects the oxidative coupling of phenol and 4-aminophenazone to form a red quinone-imine dye. The color intensity of the dye formed is directly proportional to the cholesterol concentration. It is determined by measuring the increase in absorbance.
Human serum and plasma samples cholesterol determination was done on a Roche/Hitachi Cobas c 701/702 system which automatically calculate the analyte concentration of each sample.

[1] = 200 mg q.d. continued to week 20, week 2
[2] = 200 mg q.d. continued to week 20, week 4
[3] = 200 mg q.d. continued to week 20, week 6
[4] = 200 mg q.d. continued to week 20, week 10
[5] = 200 mg q.d. continued to week 20, week 12
[6] = 200 mg q.d. continued to week 20, week 16
[7] = 200 mg q.d. continued to week 20, week 20
[8] = 200 mg q.d. week 0 to 10, to 100 mg q.d. week 10 to 20, week 2
[9] = 200 mg q.d. week 0 to 10, to 100 mg q.d. week 10 to 20, week 4
[10] = 200 mg q.d. week 0 to 10, to 100 mg q.d. week 10 to 20, week 6
[11] = 200 mg q.d. week 0 to 10, to 100 mg q.d. week 10 to 20, week 10
[12] = 200 mg q.d. week 0 to 10, to 100 mg q.d. week 10 to 20, week 12
[13] = 200 mg q.d. week 0 to 10, to 100 mg q.d. week 10 to 20, week 16
[14] = 200 mg q.d. week 0 to 10, to 100 mg q.d. week 10 to 20, week 20
[15] = 200 mg q.d. week 0 to 10, to placebo week 10 to 20, week 2
[16] = 200 mg q.d. week 0 to 10, to placebo week 10 to 20, week 4
[17] = 200 mg q.d. week 0 to 10, to placebo week 10 to 20, week 6
[18] = 200 mg q.d. week 0 to 10, to placebo week 10 to 20, week 10
[19] = 200 mg q.d. week 0 to 10, to placebo week 10 to 20, week 12
[20] = 200 mg q.d. week 0 to 10, to placebo week 10 to 20, week 16
[21] = 200 mg q.d. week 0 to 10, to placebo week 10 to 20, week 20

Question: `O=C(Nc1nc2cccc(-c3ccc(CN4CCS(=O)(=O)CC4)cc3)n2n1)C1CC1` [Compound 1, cyclopropanecarboxylic acid {5-[4-(1,1-dioxo-thiomorpholin-4-ylmethyl)-phenyl]-[1,2,4]triazolo[1,5-a]pyridin-2yl}-amide] was tested. Which “[Total cholesterol] Mean CFB - 20 weeks results” value [1] did it give?
Answer: Its value is 7.30%.

Question: What about the “[Total cholesterol] Median CFB - 20 weeks results” value [1] of the same compound?
Answer: Its value is 5.15%.

Question: And the “[Total cholesterol] Mean CFB - 20 weeks results” value [2]?
Answer: The value was 5.06%.

Question: And the “[Total cholesterol] Median CFB - 20 weeks results” value [2]?
Answer: Its value is 2.70%.

Question: What about the “[Total cholesterol] Mean CFB - 20 weeks results” value [3] of the same compound?
Answer: Its value is 6.70%.

Question: What about the “[Total cholesterol] Median CFB - 20 weeks results” value [3] of the same compound?
Answer: Its value is 7.88%.

Question: And the “[Total cholesterol] Mean CFB - 20 weeks results” value [4]?
Answer: The value was 11.58%.

Question: And the “[Total cholesterol] Median CFB - 20 weeks results” value [4]?
Answer: The value was 9.98%.

Question: What about the “[Total cholesterol] Mean CFB - 20 weeks results” value [5] of the same compound?
Answer: The value was 11.06%.

Question: And the “[Total cholesterol] Median CFB - 20 weeks results” value [5]?
Answer: Its value is 6.99%.

Question: What about the “[Total cholesterol] Mean CFB - 20 weeks results” value [6] of the same compound?
Answer: The value was 11.13%.

Question: What about the “[Total cholesterol] Median CFB - 20 weeks results” value [6] of the same compound?
Answer: Its value is 6.91%.

Question: What about the “[Total cholesterol] Mean CFB - 20 weeks results” value [7] of the same compound?
Answer: The value was 11.03%.

Question: What about the “[Total cholesterol] Median CFB - 20 weeks results” value [7] of the same compound?
Answer: The value was 5.31%.

Question: What about the “[Total cholesterol] Mean CFB - 20 weeks results” value [8] of the same compound?
Answer: Its value is 4.54%.

Question: What about the “[Total cholesterol] Median CFB - 20 weeks results” value [8] of the same compound?
Answer: Its value is 4.08%.

Question: And the “[Total cholesterol] Mean CFB - 20 weeks results” value [9]?
Answer: The value was 6.72%.

Question: What about the “[Total cholesterol] Median CFB - 20 weeks results” value [9] of the same compound?
Answer: Its value is 1.92%.

Question: And the “[Total cholesterol] Mean CFB - 20 weeks results” value [10]?
Answer: The value was 6.47%.

Question: What about the “[Total cholesterol] Median CFB - 20 weeks results” value [10] of the same compound?
Answer: The value was 5.89%.

Question: And the “[Total cholesterol] Mean CFB - 20 weeks results” value [11]?
Answer: Its value is 9.72%.

Question: And the “[Total cholesterol] Median CFB - 20 weeks results” value [11]?
Answer: The value was 7.10%.

Question: And the “[Total cholesterol] Mean CFB - 20 weeks results” value [12]?
Answer: Its value is 5.38%.

Question: And the “[Total cholesterol] Median CFB - 20 weeks results” value [12]?
Answer: Its value is 7.04%.

Question: And the “[Total cholesterol] Mean CFB - 20 weeks results” value [13]?
Answer: The value was 2.89%.

Question: What about the “[Total cholesterol] Median CFB - 20 weeks results” value [13] of the same compound?
Answer: Its value is 2.83%.

Question: And the “[Total cholesterol] Mean CFB - 20 weeks results” value [14]?
Answer: Its value is 3.80%.

Question: And the “[Total cholesterol] Median CFB - 20 weeks results” value [14]?
Answer: The value was 2.28%.

Question: What about the “[Total cholesterol] Mean CFB - 20 weeks results” value [15] of the same compound?
Answer: Its value is 3.98%.

Question: And the “[Total cholesterol] Median CFB - 20 weeks results” value [15]?
Answer: Its value is 3.93%.

Question: What about the “[Total cholesterol] Mean CFB - 20 weeks results” value [16] of the same compound?
Answer: Its value is 6.98%.

Question: And the “[Total cholesterol] Median CFB - 20 weeks results” value [16]?
Answer: Its value is 6.38%.

Question: What about the “[Total cholesterol] Mean CFB - 20 weeks results” value [17] of the same compound?
Answer: The value was 5.72%.

Question: And the “[Total cholesterol] Median CFB - 20 weeks results” value [17]?
Answer: Its value is 7.32%.

Question: And the “[Total cholesterol] Mean CFB - 20 weeks results” value [18]?
Answer: The value was 5.28%.

Question: What about the “[Total cholesterol] Median CFB - 20 weeks results” value [18] of the same compound?
Answer: The value was 3.89%.

Question: What about the “[Total cholesterol] Mean CFB - 20 weeks results” value [19] of the same compound?
Answer: The value was 1.82%.

Question: What about the “[Total cholesterol] Median CFB - 20 weeks results” value [19] of the same compound?
Answer: Its value is 3.93%.

Question: And the “[Total cholesterol] Mean CFB - 20 weeks results” value [20]?
Answer: Its value is 5.24%.

Question: What about the “[Total cholesterol] Median CFB - 20 weeks results” value [20] of the same compound?
Answer: The value was 1.36%.

Question: And the “[Total cholesterol] Mean CFB - 20 weeks results” value [21]?
Answer: The value was 3.92%.

Question: What about the “[Total cholesterol] Median CFB - 20 weeks results” value [21] of the same compound?
Answer: The value was 2.50%.

Question: And the “[Total cholesterol] Mean CFB - 10 weeks results” value (week 2)?
Answer: Its value is 6.066%.

Question: And the “[Total cholesterol] Median CFB - 10 weeks results” value (week 2)?
Answer: Its value is 4.148%.

Question: What about the “[Total cholesterol] Mean CFB - 10 weeks results” value (week 4) of the same compound?
Answer: The value was 5.803%.

Question: What about the “[Total cholesterol] Median CFB - 10 weeks results” value (week 4) of the same compound?
Answer: Its value is 3.803%.

Question: And the “[Total cholesterol] Mean CFB - 10 weeks results” value (week 6)?
Answer: The value was 6.458%.

Question: What about the “[Total cholesterol] Median CFB - 10 weeks results” value (week 6) of the same compound?
Answer: Its value is 7.187%.

Question: And the “[Total cholesterol] Mean CFB - 10 weeks results” value (week 10)?
Answer: Its value is 9.976%.

Question: What about the “[Total cholesterol] Median CFB - 10 weeks results” value (week 10) of the same compound?
Answer: Its value is 7.456%.

Question: What about the “[Total cholesterol] Median CFB” value (week 2) of the same compound?
Answer: Its value is 0.200 mmol/L.

Question: What about the “[total cholesterol] Mean CFB” value (week 2) of the same compound?
Answer: Its value is 0.231 mmol/L.

Question: What about the “[Total cholesterol] Median CFB” value (week 4) of the same compound?
Answer: Its value is 0.180 mmol/L.

Question: And the “[total cholesterol] Mean CFB” value (week 4)?
Answer: The value was 0.194 mmol/L.

Question: What about the “[Total cholesterol] Median CFB” value (week 6) of the same compound?
Answer: Its value is 0.300 mmol/L.

Question: And the “[total cholesterol] Mean CFB” value (week 6)?
Answer: The value was 0.215 mmol/L.
